{"source": "patent US20030206968A1", "about": "“Fungicidal mixtures” (priority 1999, published 2003)", "format_in_all_cases": "in vivo", "key": {"Blumeria graminis [1]": {"tested_on": "Blumeria graminis", "assay": "Field test, Blumeria graminis on wheat", "conditions": "15 days after application", "protocol": "(§1) The trials are carried out under greenhouse (Examples 1 to 32) or field conditions (Examples 33 to 40) in residual or curative applications. The fungicides are applied in single treatments, or in a combination comprising an azolopyrimidine of formula I and a compound selected from the classes (A), (B) and (C) as defined above. The compounds are applied in form of an aqueous spray mix obtained from a concentrated formulation or the technical material.\n(§2) For the field study formulated Azolopyrimidine A, B or C and formulated compounds from the classes (A), (B) and (C) were used.\n(§3) Assessments of the diseases took place at the indicated day after the application of the compounds. Per cent infected leaf area infected was evaluated. The efficacy of the compounds/compounds mixtures to control the diseases was calculated by using the formula given above under item 4: […]\n(§4) Synergy was calculated using the % disease control values of specific treatments for the two COLBY formula given hereinabove\n(§5) The compounds are applied according to good agricultural practice in the form of an aqueous spray mix obtained from a concentrated formulation or the technical material at a rate of 400 l/ha. The disease control is evaluated according to the formula given for the greenhouse tests.\n(§6) Fungicidal efficacy of the mixture of (S)-Azolopyrimidine C+cyproconazole in the field against Blumeria graminis on wheat 17 days after application The tank mix was obtained from a SC formulation containing 100 g (S)-Azolopyrimidine C per liter and an EC formulation containing 60 g cyproconazole per liter.\nas §6, with “C+azoxystrobin” for “C+cyproconazole”, “a SC” for “an EC”, “250” for “60”, “azoxystrobin” for “cyproconazole”, “kg.” for “liter.”\n(§7) Fungicidal efficacy of the mixture of Azolopyrimidine A and different cereal fungicides in the field against Blumeria graminis on wheat 15 days after application The tank mix was obtained from an SC formulation containing 100 g Azolopyrimidine A per liter and commercially available formulations of metconazole, epoxiconazole or kresoxim methyl, respectively."}, "Septoria tritici": {"tested_on": "Septoria tritici", "assay": "Field test, Septoria tritici on wheat", "protocol": "as §1, §2, §3, §4, §5\nFungicidal efficacy of the mixture of Azolopyrimidine C+metconazole in the field against Septoria tritici on wheat The tank mix was obtained from an EC formulation containing 150 g Azolopyrimidine C per liter and a SL formulation containing 60 g metconazole per liter. The observed and expected efficacies with different rates are given in Table XXXIVa (19 days after application) and Table XXXIVb (25 days after application):\nFungicidal efficacy of the mixture of (S)-Azolopyrimidine C+kresoxim methyl in the field against Septoria tritici on wheat The tank mix was obtained from a SC formulation containing 100 g (S)-Azolopyrimidine C per liter and a WG formulation containing 500 g kresoxim methyl per kg. The observed and expected efficacies with different rates are given in Tables XXXVa (7 days after application), XXXVb (22 days after application), XXXVc (34 days after application), and XXXVd (41 days after application):\nas §7, with “fungicides” for “fungicides in”, “Septoria tritici” for “Blumeria graminis”, “propiconazole,” for “kresoxim methyl,”"}, "Puccinia recondita [2]": {"tested_on": "Puccinia recondita", "assay": "Field test, Puccinia recondita on wheat", "conditions": "50 days after application", "protocol": "as §1, §2, §3, §4, §5\nas §7, with “Puccinia recondita” for “Blumeria graminis”, “50” for “15”, “epoxiconazole, propiconazole” for “epoxiconazole”"}, "Blumeria graminis [3]": {"tested_on": "Blumeria graminis", "assay": "Greenhouse, Blumeria graminis on wheat, 2 day residual", "conditions": "Example 3", "protocol": "as §1\n(§8) 1. Seed is planted in 6 cm diameter plastic pots and maintained in the greenhouse.\n(§9) 2. When the primary leaf is fully expanded in the case of cereals or several leaves are present in the case of dicots, formulated test compounds are sprayed with a three nozzle overhead fungicide sprayer to near run-off. Alternatively, a single nozzle overhead track sprayer is used for application of the compounds to cereals at a rate of 200 l/ha. Plants are then allowed to air-dry.\n(§10) 3. Inoculation precedes treatment in the case of curative evaluations and follows treatment in case of residual evaluations. For inoculation of powdery mildew disease, plants are set up on greenhouse benches with bottom watering mats and inoculated by dusting them with conidia from infected plants. Between inoculation and treatment for curative evaluations and between treatment and inoculation for residual evaluations, plants are maintained in the greenhouse with bottom watering.\n(§11) 4. Disease on the foliage as percent leaf area with disease symptoms/signs is evaluated about 7 days after inoculation. In the case of wheat, the tips and bases of the leaves are excluded from the evaluation. [formula]\n1. […]\nas §3\nSynergy was calculated using the % disease control values of specific treatments for the two COLBY formula given hereinabove […]"}, "Leptosphaeria nodorum": {"tested_on": "Leptosphaeria nodorum", "assay": "Greenhouse, Leptosphaeria nodorum on wheat, 3 day residual", "protocol": "as §1, §8, §9, §10\n(§12) For inoculation of non-powdery mildew diseases, an aqueous spore suspension of the pathogen is applied to the plant and the plants are kept 1-2 days in a moist infection chamber before being returned to the greenhouse where they are maintained by bottom watering.\nas §11\n(§13) 1. Technical compounds are formulated in a solvent/surfactant system consisting of 5% acetone and 0.05% Tween 20 in deionized water. Compounds are dissolved in acetone prior to addition of the water; the Tween 20 can be added through either the acetone or the water. Dilutions are made using the solvent/surfactant system. Formulated compounds are prepared using deionized water.\n(§14) 2. Two kinds of controls are included: Plants treated with the solvent/surfactant solution and inoculated (Solvent Blank). Untreated plants which are inoculated (Inoculated Control).\nas §3, §4\nFungicidal efficacy of the mixture of Azolopyrimidine A+fenpropimorph (3 day residual) against Leptosphaeria nodorum on wheat The tank mix was obtained from technical material of Azolopyrimidine A and an EC formulation containing 750 g fenpropimorph per liter.\nFungicidal efficacy of the mixture of Azolopyrimidine A+tebuconazole (3 day residual) against Leptosphaeria nodorum on wheat The tank mix was obtained from technical material of Azolopyrimidine A and an EC formulation containing 250 g tebuconazole per liter."}, "Botrytis cinerea": {"tested_on": "Botrytis cinerea", "assay": "Apple fruit Botrytis test, Botrytis cinerea on apple fruits, 3 day residual", "protocol": "1. Apples (Malus X domestica Borkh.) variety Golden Delicious are disinfected by washing them briefly in 70% ethanol. After drying the apples are marked with four short equal-distant lines indicating the positions to be wounded.\n2. Corresponding with the marks, four holes are poked around the apple equator with a pipette tip. 10 μl of the treatment solution are pipetted into each hole.\n3. Three hours after application, 10 μl of a conidial suspension of Botrytis cinerea are pipetted into each. For incubation, the treated/inoculated apples are set up for five days.\n4. Disease occurs as rotten apple tissue surrounding the inoculated wounds. The diameter of the rotten zone around each wound is measured.\n1. Technical compounds are formulated in a solvent system consisting of 5% acetone and 0.05% Tween 20 in deionized water. Compounds are dissolved in acetone prior to dilution with water. Formulated compounds are prepared using deionized water.\n2. Three kinds of controls are included:\nAssessments of the diseases took place at the indicated day after the application of the compounds. Per cent infected leaf area infected was evaluated. The efficacy of the compounds/compounds mixtures to control the diseases was calculated by using the formula: [formula]\nas §4\nFungicidal efficacy of the mixture of Azolopyrimidine A+vinclozolin (3 day residual) against Botrytis cinerea on apple fruits The tank mix was obtained from technical material of Azolopyrimidine A and a WG formulation containing 500 g vinclozolin per kg.\nFungicidal efficacy of the mixture of Azolopyrimidine A+cyprodinil (3 day residual) against Botrytis cinerea on apple fruits The tank mix was obtained from technical material of Azolopyrimidine A and a WG formulation containing 750 g cyprodinil per kg.\nFungicidal efficacy of the mixture of Azolopyrimidine A+benomyl (3 day residual) against Botrytis cinerea on apple fruits The tank mix was obtained from technical material of Azolopyrimidine A and a WP formulation containing 500 g benomyl per kg."}, "Puccinia recondita [4]": {"tested_on": "Puccinia recondita", "assay": "Greenhouse, Puccinia recondita on wheat, 1 day curative, plants sprayed twice, once with each compound", "conditions": "Example 12", "protocol": "as §1, §8, §9, §10, §12, §11, §13, §14, §3, §4\nFungicidal efficacy of the mixture of Azolopyrimidine C+kresoxim methyl (1 day curative) against Puccinia recondita on wheat Plants sprayed twice, once with each compound. The tank mixes were obtained from a SC formulation containing 100 g Azolopyrimidine C per liter and a WG containing 500 g kresoxim methyl per kg."}, "[5]": {"conditions": "Azolopyrimidine A 125 g/ha alone"}}}
{"smiles": "Fc1ccc([C@]2(Cn3cncn3)O[C@H]2c2ccccc2Cl)cc1", "note": "(racemic) [epoxiconazole]", "values": [{"measurement": "Observed Efficacy", "setting": "Blumeria graminis [1]; epoxiconazole 63 g/ha alone", "result": 40}, {"measurement": "Observed Efficacy", "setting": "Septoria tritici; epoxiconazole 63 g/ha alone, 15 days after application, field, wheat", "result": 93}, {"measurement": "Observed Efficacy", "setting": "Puccinia recondita [2]; epoxiconazole 63 g/ha alone", "result": 95}]}
{"smiles": "CC1CCN(c2c(-c3c(F)cccc3Cl)c(Cl)nc3ncnn23)CC1", "note": "[Azolopyrimidine A, 5-chloro-6-(2-chloro-6-fluorophenyl)-7-(4-methylpiperid-1-yl)-[1,2,4]triazolo[1,5-a]pyrimidine]", "values": [{"measurement": "Observed Efficacy", "setting": "Blumeria graminis [1]; [5]", "result": 22}, {"measurement": "Observed Efficacy", "setting": "Blumeria graminis [3]; dose rate 10 ppm", "result": 14, "unit": "%"}, {"measurement": "Observed Efficacy", "setting": "Septoria tritici; Azolopyrimidine A 125 g/ha alone, 15 days after application, field, wheat", "result": 63}, {"measurement": "Observed Efficacy", "setting": "Leptosphaeria nodorum; Example 1, dose rate 10 ppm", "result": 35, "unit": "%"}, {"measurement": "Observed Efficacy", "setting": "Leptosphaeria nodorum; Example 1, dose rate 100 ppm", "result": 40, "unit": "%"}, {"measurement": "Observed Efficacy", "setting": "Leptosphaeria nodorum; Example 2, dose rate 100 ppm", "result": 40, "unit": "%"}, {"measurement": "Observed Efficacy", "setting": "Botrytis cinerea; Example 4, dose rate 1 ppm", "result": 0, "unit": "%"}, {"measurement": "Observed Efficacy", "setting": "Botrytis cinerea; Example 4, dose rate 10 ppm", "result": 33, "unit": "%"}, {"measurement": "Observed Efficacy", "setting": "Botrytis cinerea; Example 5, dose rate 1 ppm", "result": 0, "unit": "%"}, {"measurement": "Observed Efficacy", "setting": "Botrytis cinerea; Example 5, dose rate 10 ppm", "result": 33, "unit": "%"}, {"measurement": "Observed Efficacy", "setting": "Botrytis cinerea; Example 6, dose rate 1 ppm", "result": 0, "unit": "%"}, {"measurement": "Observed Efficacy", "setting": "Botrytis cinerea; Example 6, dose rate 10 ppm", "result": 0, "unit": "%"}, {"measurement": "Observed Efficacy", "setting": "Botrytis cinerea; Example 7, dose rate 1 ppm", "result": 0, "unit": "%"}, {"measurement": "Observed Efficacy", "setting": "Botrytis cinerea; Example 7, dose rate 10 ppm", "result": 25, "unit": "%"}, {"measurement": "Observed Efficacy", "setting": "Puccinia recondita [2]; [5]", "result": 0}]}
{"smiles": "CO/N=C(/C(=O)OC)c1ccccc1COc1ccccc1C", "note": "[kresoxim methyl]", "values": [{"measurement": "Observed Efficacy", "setting": "Blumeria graminis [1]; kresoxim methyl 100 g/ha alone", "result": 85}, {"measurement": "Observed Efficacy", "setting": "Septoria tritici; Example 35, 7 days after application, dose rate 100 g/ha", "result": 40, "unit": "%"}, {"measurement": "Observed Efficacy", "setting": "Septoria tritici; Example 35, 22 days after application, dose rate 100 g/ha", "result": 64, "unit": "%"}, {"measurement": "Observed Efficacy", "setting": "Septoria tritici; Example 35, 34 days after application, dose rate 50 g/ha", "result": 44, "unit": "%"}, {"measurement": "Observed Efficacy", "setting": "Septoria tritici; Example 35, 34 days after application, dose rate 100 g/ha", "result": 59, "unit": "%"}, {"measurement": "Observed Efficacy", "setting": "Septoria tritici; kresoxim methyl 100 g/ha alone, 41 days after application, field, wheat", "result": 92}, {"measurement": "Observed Efficacy", "setting": "Puccinia recondita [4]; dose rate 25 g/ha", "result": 0, "unit": "%"}, {"measurement": "Observed Efficacy", "setting": "Puccinia recondita [4]; dose rate 50 g/ha", "result": 1, "unit": "%"}, {"measurement": "Observed Efficacy", "setting": "Puccinia recondita [4]; dose rate 100 g/ha", "result": 0, "unit": "%"}, {"measurement": "Observed Efficacy", "setting": "Puccinia recondita [4]; dose rate 200 g/ha", "result": 1, "unit": "%"}, {"measurement": "Observed Efficacy", "setting": "Puccinia recondita [4]; dose rate 400 g/ha", "result": 5, "unit": "%"}, {"measurement": "Observed Efficacy", "setting": "Puccinia recondita [2]; kresoxim methyl 100 g/ha alone", "result": 0}]}
{"smiles": "CCCC1COC(Cn2cncn2)(c2ccc(Cl)cc2Cl)O1", "note": "(stereo not drawn) [propiconazole]", "values": [{"measurement": "Observed Efficacy", "setting": "Septoria tritici; propiconazole 63 g/ha alone, 15 days after application, field, wheat", "result": 72}, {"measurement": "Observed Efficacy", "setting": "Puccinia recondita [2]; propiconazole 63 g/ha alone", "result": 49}]}
{"smiles": "CC(C)(C)C(O)(CCc1ccc(Cl)cc1)Cn1cncn1", "note": "(stereo not drawn) [tebuconazole]", "values": [{"measurement": "Observed Efficacy", "setting": "Blumeria graminis [3]; dose rate 0.02 ppm", "result": 2, "unit": "%"}, {"measurement": "Observed Efficacy", "setting": "Blumeria graminis [3]; dose rate 0.2 ppm", "result": 9, "unit": "%"}, {"measurement": "Observed Efficacy", "setting": "Leptosphaeria nodorum; Example 2, dose rate 0.02 ppm", "result": 25, "unit": "%"}, {"measurement": "Observed Efficacy", "setting": "Leptosphaeria nodorum; Example 2, dose rate 0.2 ppm", "result": 19, "unit": "%"}]}
